Assays:
[1] = target: T1, Sigma intracellular receptor 2 (Rattus norvegicus, UniProt Q5U3Y7); assay: Displacement of [3H]di-O-tolylguanidine from sigma 2 receptor in rat liver membrane by competitive radioligand receptor binding assay; format: cell membranes
T1 sequence (Q5U3Y7 whole entry): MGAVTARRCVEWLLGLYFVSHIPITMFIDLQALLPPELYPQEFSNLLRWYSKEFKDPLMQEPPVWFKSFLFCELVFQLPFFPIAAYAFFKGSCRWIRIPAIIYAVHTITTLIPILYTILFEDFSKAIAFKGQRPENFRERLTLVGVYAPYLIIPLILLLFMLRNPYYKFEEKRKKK

[2] = target: Sigma non-opioid intracellular receptor 1 (Cavia porcellus, UniProt Q60492)
Sequence of Sigma non-opioid intracellular receptor 1 (Q60492 whole entry): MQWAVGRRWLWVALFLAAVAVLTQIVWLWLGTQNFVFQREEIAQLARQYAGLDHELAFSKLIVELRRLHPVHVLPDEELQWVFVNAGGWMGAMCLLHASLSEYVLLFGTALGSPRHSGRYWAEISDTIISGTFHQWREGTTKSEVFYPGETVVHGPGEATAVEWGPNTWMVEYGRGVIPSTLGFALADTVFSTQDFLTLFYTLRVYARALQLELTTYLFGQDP

[3] = Drug metabolism in mouse liver microsomes assessed as compound oxidization incubated for 90 mins in presence of NAPDH; format: ADME, Microsome; settings: read-out: Drug metabolism
[4] = Distribution coefficient between n-Octanol and aqueous buffer, logD of the compound in pH 7.4 buffer by LC/MS analysis; format: physicochemical
[5] = target: Albumin (Homo sapiens, UniProt P02768); assay: Protein binding in human serum albumin by HPAC analysis; format: ADME; settings: read-out: PB (converted)
Sequence of Albumin (P02768 whole entry): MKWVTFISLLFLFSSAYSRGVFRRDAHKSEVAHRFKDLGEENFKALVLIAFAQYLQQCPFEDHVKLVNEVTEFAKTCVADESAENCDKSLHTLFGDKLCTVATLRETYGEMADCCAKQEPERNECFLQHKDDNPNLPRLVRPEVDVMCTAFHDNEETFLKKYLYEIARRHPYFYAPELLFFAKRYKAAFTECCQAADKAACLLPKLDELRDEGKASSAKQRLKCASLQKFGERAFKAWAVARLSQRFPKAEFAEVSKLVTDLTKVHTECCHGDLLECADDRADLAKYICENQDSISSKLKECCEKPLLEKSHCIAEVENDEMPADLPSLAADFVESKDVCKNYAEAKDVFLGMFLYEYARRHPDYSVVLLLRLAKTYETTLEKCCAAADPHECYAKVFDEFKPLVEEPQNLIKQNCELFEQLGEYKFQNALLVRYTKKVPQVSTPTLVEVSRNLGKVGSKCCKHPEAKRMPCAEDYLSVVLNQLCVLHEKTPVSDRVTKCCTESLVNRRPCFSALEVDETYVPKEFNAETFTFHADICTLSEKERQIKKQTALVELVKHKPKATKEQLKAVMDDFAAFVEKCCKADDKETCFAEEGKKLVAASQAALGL

[6] = test system: Mus musculus; assay: Antiallodynic activity in capsaicin-induced mechanical allodynia CD1 mouse model assessed as reduction in mechanical allodynia administered subcutaneously preincubated for 30 min followed by capsaicin injection and measured after 15 mins by Von Frey filament assay; format: functional, organism-based; settings: dose 8-32 mg/kg, route sc, time 45.0 min, DDE = dose-dependent effect

Row | Structure (SMILES) | Ki [1] | Ki [2] | metabolised at 1.5 h [3] | logD [4] | fraction unbound [5] | Activity [6]
1 | O[C@@H](CN1[C@@H]2CC[C@H]1C/C(=C/c1ccc(F)cc1)C2)c1ccccc1 | 29 nM | 18 nM | – | – | – | –
2 | O[C@H](CN1[C@@H]2CC[C@H]1C/C(=C/c1ccc(F)cc1)C2)c1ccccc1 | 11 nM | 0.45 nM | – | – | – | –
3 | O[C@H](CN1[C@@H]2CC[C@H]1C/C(=C\c1ccc(F)cc1)C2)c1ccccc1 | 27 nM | 6.6 nM | – | – | – | –
4 | OC(CN1CCC(Cc2ccc(F)cc2)CC1)c1ccc(Cl)cc1 (centres undefined) [ELIPRODIL] | 71 nM | 94 nM | – | – | – | –
5 | O[C@@H](CN1[C@@H]2CC[C@H]1C/C(=C\c1ccc(F)cc1)C2)c1ccccc1 | 10 nM | 0.8 nM | 32% | 3.06 | 0.05 | Dde

From ChEMBL document CHEMBL5154708, “Synthesis of tropane-based σ1 receptor antagonists with antiallodynic activity” (Eur J Med Chem, 2022)
